How the values were obtained:
[1] = tested on: non-tumor bearing balb c nu/nu male mice; test: Kidney and pancreas toxicity of 177Lu-NeoBOMB1 treatment; type: in vivo; conditions: for histopathology of the kidneys: 24 weeks after therapy
Description: To determine the effect of treatment on pancreas and kidney tissue, non-tumor bearing balb c nu/nu male mice received the same treatment as the animals included in the efficacy study. At 2 different time points after the last therapeutic injection (12 weeks and 24 weeks p.i.) animals were euthanized and pancreas and kidney tissue was collected for pathological analysis.
(§1) In both studies, animal weight and/or tumor size was measured bi-weekly. When tumor size was ≥2000 mm^3 or a decrease in animal weight ≥20% within 48 hours was observed, animals were removed from the study. In the efficacy study, animals were followed until the maximum allowed age of 230 days was reached.
Pancreatic and kidney tissue collected for pathological analysis was formalin fixed and paraffin embedded. Hematoxylin and eosin staining was performed on […] thick tissue slices using the Ventana Symphony™ H&E protocol (Ventana), to determine differences in tissue structure between the 4 treatment groups. In total 4 tissue slices, […] apart from each other were evaluated of each organ. The hematoxylin and eosin staining's were evaluated by experienced pathologists.

PC-3 cells = test: Therapeutic efficacy of 177Lu-NeoBOMB1 in PC-3 xenografted mice; type: in vivo, balb c nu/nu mice; conditions: for time to reach a tumor size of 2000 mm^3: 1 week apart, extrapolated growth curves; for animals without any tumor regrowth after a complete response: n=15
Description: Male balb c nu/nu mice were subcutaneously inoculated on the right shoulder with 200 μL 4×10^6 PC-3 cells (American Type Culture Collection) in inoculation medium (⅓ Matrigel high concentration (Corning)+⅔ Hank's balanced salt solution (Thermofisher Scientific)). Four weeks post tumor cell inoculation when an average tumor size of 543+177 mm^3 was reached, animals were divided in four groups: control group (n=10) and therapy group 1-3 (n=15 per group). To determine the efficacy of ^177Lu-NeoBOMB1, animals received either 3 sham injections (control group), 3×30 MBq/300 pmol ^177Lu-NeoBOMB1 (group 1), 3×40 MBq/400 pmol ^177Lu-NeoBOMB1 (group 2) or 3×60 MBq/600 pmol ^177Lu-NeoBOMB1 (group 3) under isoflurane/O2 anesthesia. Injections were administered intravenously and injections were given 1 week apart.
as §1
The tumor doubling times were determined by fitting an exponential growth function to the tumor volume over time in the control group. In the therapy groups an interval with exponential tumor volume decline was fitted with onset of regrowth after the nadir time. The growth curves were extrapolated beyond the censoring time points for mice with too large tumors (>2000 mm^3) to determine average growth statistics. Tumor growth delay times were individually determined by comparing the times needed to reach the maximum tumor size of 2000 mm^3 with the mean time found in the control group.
Prism software (version 5.01, GraphPad Software) was used for statistical analyses. P values […] were considered statistically significant. The difference in tumor volume growths and delay times for the 4 groups were analyzed with the One-way ANOVA test with Bonferroni's multiple comparison test. Curve fitting was performed according to the least/square fit with the Pearson R^2 to quantify its goodness.

[2] = Dosimetry: estimated absorbed dose to tumor, pancreas and kidneys (RADAR realistic mouse model)
From the text: The RADAR realistic mouse model (Keenan M A, Stabin M G, Segars W P, Fernald M J. RADAR realistic animal model series for dose assessment. J Nucl Med. 2010; 51:471-476) with a weight of 25 g and data from previously published biodistribution and pharmacokinetic studies (Dalm S U, Bakker I L, de Blois E, et al. 68Ga/^177Lu-NeoBOMB1, a Novel Radiolabeled GRPR Antagonist for Theranostic Use in Oncology. J Nucl Med. 2017; 58:293-299) were used to calculate the dose to the tumor, pancreas and kidneys, when animals were treated with 3×30 MBq/300 pmol, […] or 3×60 MBq/600 pmol ^177Lu-NeoBOMB1. The biodistribution data of our previously published paper (Dalm S U, Bakker I L, de Blois E, et al. ^68Ga/^177Lu-NeoBOMB1, a Novel Radiolabeled GRPR Antagonist for Theranostic Use in Oncology. J Nucl Med. 2017; 58:293-299) were fitted with exponential curves to define the time-activity curve in the tumor and organs. The time integrated activities for ^177Lu were obtained by integrating these exponential curves folded with the 177Lu decay curve (T1/2=6.647 d). Absorbed doses per administered activities were obtained by multiplying with the organ S-values from Keenan et al. (Keenan M A, Stabin M G, Segars W P, Fernald M J. RADAR realistic animal model series for dose assessment. J Nucl Med. 2010; 51:471-476) or by using the spherical node S-values (Stabin M G, Konijnenberg M W. Re-evaluation of absorbed fractions for photons and electrons in spheres of various sizes. J Nucl Med. 2000; 41:149-160) for a 340 mg tumor.
An estimation was made of the radioactivity dose to the tumor, pancreas and kidneys after treatment with 3×30 MBq/300 pmol, 3×40 MBq/400 pmol or 3×60 MBq/600 pmol ^177Lu-NeoBOMB1 (See Table 3 below). For this it was assumed that tumor and organ uptake was similar after each injection.

[3] = 3×30 MBq/300 pmol, 1st injection
[4] = 3×30 MBq/300 pmol, 2nd injection
[5] = 3×30 MBq/300 pmol, 3rd injection
[6] = 3×40 MBq/400 pmol, 1st injection
[7] = 3×40 MBq/400 pmol, 2nd injection
[8] = 3×40 MBq/400 pmol, 3rd injection
[9] = 3×60 MBq/600 pmol, 1st injection
[10] = 3×60 MBq/600 pmol, 2nd injection
[11] = 3×60 MBq/600 pmol, 3rd injection

## CC(C)CC(CC(C)C)NC(=O)[C@H](Cc1cnc[nH]1)NC(=O)CNC(=O)[C@@H](NC(=O)[C@H](C)NC(=O)[C@H](Cc1c[nH]c2ccccc12)NC(=O)[C@H](CCC(N)=O)NC(=O)[C@@H](Cc1ccccc1)NC(=O)COCC(=O)Nc1ccc(CNC(=O)CN2CCN(CC(=O)O)CCN(CC(=O)O)CCN(CC(=O)O)CC2)cc1)C(C)C [^177Lu-NeoBOMB1, metal not drawn]
[1]; 12 and 24 weeks after last injection, in control as well as treated animals, not related to therapy
  histopathology of the kidneys, lymphocyte infiltration: small areas with lymphocyte infiltration
[1]; H&E, 12 and 24 weeks after last injection
  histopathology of the pancreas: no tissue damage or other abnormalities
[1]; all groups, follow-up up to 24 weeks
  animal weight: no critical decrease in weight
[1]; group 3 (3×60 MBq/600 pmol), both animals
  histopathology of the kidneys: mild chronic inflammatory response
[1]; lowest dose (3×30 MBq/300 pmol), ID: 864, unlikely related to therapy
  histopathology of the kidneys: atrophy and fibrosis were observed in the kidneys of only one animal
[1]; one animal from Group 1 (ID: 869)
  decrease in weight within 48 h: less than 10%
PC-3 cells; all treatment groups vs control group
  therapy efficacy: effective
PC-3 cells; group 1, 3×30 MBq/300 pmol
  Median survival: 82 days
  animals without any tumor regrowth after a complete response: two
PC-3 cells; group 1, 3×30 MBq/300 pmol i.v.
  time to reach a tumor size of 2000 mm^3: 97 ± 59 days
PC-3 cells; group 2, 3×40 MBq/400 pmol
  Median survival: 89 days
  animals without any tumor regrowth after a complete response: one
PC-3 cells; group 2, 3×40 MBq/400 pmol i.v.
  time to reach a tumor size of 2000 mm^3: 103 ± 66 days
PC-3 cells; group 3, 3×60 MBq/600 pmol
  Median survival: 99 days
PC-3 cells; group 3, 3×60 MBq/600 pmol i.v.
  time to reach a tumor size of 2000 mm^3: 95 ± 26 days
[2]; [3]
  Cumulative absorbed dose, Kidney: 1.7 Gy
  Cumulative absorbed dose, Pancreas: 7.9 Gy
  Cumulative absorbed dose, Tumor: 17 Gy
[2]; [4]
  Cumulative absorbed dose, Kidney: 3.4 Gy
  Cumulative absorbed dose, Pancreas: 16 Gy
  Cumulative absorbed dose, Tumor: 34 Gy
[2]; [5]
  Cumulative absorbed dose, Kidney: 5.1 Gy
  Cumulative absorbed dose, Pancreas: 32 Gy
  Cumulative absorbed dose, Tumor: 68 Gy
[2]; [6]
  Cumulative absorbed dose, Kidney: 2.3 Gy
  Cumulative absorbed dose, Pancreas: 11 Gy
  Cumulative absorbed dose, Tumor: 23 Gy
[2]; [7]
  Cumulative absorbed dose, Kidney: 4.5 Gy
  Cumulative absorbed dose, Pancreas: 21 Gy
  Cumulative absorbed dose, Tumor: 46 Gy
[2]; [8]
  Cumulative absorbed dose, Kidney: 6.8 Gy
  Cumulative absorbed dose, Pancreas: 42 Gy
  Cumulative absorbed dose, Tumor: 91 Gy
[2]; [9]
  Cumulative absorbed dose, Kidney: 3.4 Gy
  Cumulative absorbed dose, Pancreas: 16 Gy
  Cumulative absorbed dose, Tumor: 34 Gy
[2]; [10]
  Cumulative absorbed dose, Kidney: 6.8 Gy
  Cumulative absorbed dose, Pancreas: 32 Gy
  Cumulative absorbed dose, Tumor: 68 Gy
[2]; [11]
  Cumulative absorbed dose, Kidney: 10 Gy
  Cumulative absorbed dose, Pancreas: 64 Gy
  Cumulative absorbed dose, Tumor: 137 Gy
